The values that follow come from patent publication US20250101034A1, “COMPOSITIONS USEFUL FOR MODULATING SPLICING” (SKYHAWK THERAPEUTICS, INC., priority 2021, published 2025).

Test [1] concerns ATXN3 transcripts containing exon 4 (E4E5). In words: ATXN3 quantitative splicing assay (qPCR, SK-N-MC cells). The conditions noted are these: Homo sapiens, 24 h treatment, qPCR E4E5 primers/probe, read-out: ATXN3 Potency - Splicing E4E5 IC50. Format: cell-based. The gist of the method:
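SK-N-MC cells treated 24 h with compound (30 μM to 0.6 nM, 0.3% DMSO) 24 h after plating; lysates reverse-transcribed and analysed by TaqMan qPCR. E4E5 primers/probe detect exon 4–containing transcripts; E8E9 measures total ATXN3, alongside exon 4–skipped transcript detection.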
(Quantitative PCR measures a nucleic acid by following its amplification.)

In another test the test system is total ATXN3 protein. In words: ATXN3 total protein assay (MSD, SK-N-MC cells). The format is cell-based, Human. Conditions: 48 hours incubation, read-out: ATXN3 Potency - Protein IC50. The gist of the method: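 SK-N-MC human neuroblastoma cells treated with compound (30 μM to 0.6 nM) for 48 h, then lysed with protease inhibitors. Total ATXN3 measured by MSD sandwich immunoassay (mouse capture, rabbit detection antibodies, anti-rabbit MSD-ST secondary), quantified against recombinant ATXN3 standards.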

As usually defined, the IC50 is the concentration needed to halve the response being measured. With `C=C(C)c1sc2c(NCc3cccs3)cnnc2c1C` [Compound 37, 7-methyl-6-(prop-1-en-2-yl)-N-(thiophen-2-ylmethyl)thieno[3,2-c]pyridazin-4-amine], the IC50 (in test [1]; in the test on total ATXN3 protein) was 10 to 40 µM in each case.

`Cc1c(C[C@H](C)N)sc2c(NCc3ccc(Br)s3)cnnc12` [Compound 62, 6-[(2S)-2-aminopropyl]-N-[(5-bromothiophen-2-yl)methyl]-7-methylthieno[3,2-c]pyridazin-4-amine]: the IC50 (in test [1]; in the test with total ATXN3 protein) was 5 to 10 µM each time.

Turning to `Cc1c(C[C@@H](N)CC(C)C)sc2c(NCc3ccco3)cnnc12` [Compound 20, 6-[(2S)-2-amino-4-methylpentyl]-N-[(furan-2-y1)methyl]-7-methylthieno[3,2-c]pyridazin-4-amine], the IC50 (in test [1]; in the test with total ATXN3 protein) was 5 to 10 µM each time.

Regarding `Cc1c([C@@H](C)[C@@H](C)N)sc2c(NCc3cccs3)cnnc12` [Compound 102, 6-[(2S,3R)-3-aminobutan-2-yl]-7-methyl-N-[(thiophen-2-yl)methyl]thieno[3,2-c]pyridazin-4-amine], the IC50 (in test [1]; in the test on total ATXN3 protein) was 10 to 40 µM in each case.

For the molecule `CSC[C@H](N)Cc1sc2c(NCc3cccs3)cnnc2c1C` [Compound 58, 6-[(2R)-2-amino-3-(methylsulfanyl)propyl]-7-methyl-N-(thiophen-2-ylmethyl)thieno[3,2-c]pyridazin-4-amine], the IC50 (in test [1]; in the test with total ATXN3 protein) was 0.501 to 5 µM each time.

Consider `Cc1c(C[C@@H](N)COC(F)F)sc2c(NCc3cccs3)cnnc12` [Compound 133, 6-[(2R)-2-amino-3-(difluoromethoxy)propyl]-7-methyl-N-[(thiophen-2-y1)methyl]thieno[3,2-c]pyridazin-4-amine], for which the IC50 (in test [1]; in the test with total ATXN3 protein) was 0.501 to 5 µM in each case.

As for `Cc1c(C[C@@H](N)CCO)sc2c(NCc3ccco3)cnnc12` [Compound 29, (3S)-3-amino-4-(4-{[(furan-2-yl)methyl]amino}-7-methylthieno[3,2-c]pyridazin-6-yl)butan-1-ol], the IC50 (in test [1]; with total ATXN3 protein) was 0.501 to 5 µM in each case.

As for `Cc1c(C[C@H](C)N)sc2c(NCc3cc(F)cs3)cnnc12` [Compound 45, 6-[(2S)-2-aminopropyl]-N-[(4-fluorothiophen-2-yl)methyl]-7-methylthieno[3,2-c]pyridazin-4-amine], the IC50 (in test [1]; with total ATXN3 protein) was 0.501 to 5 µM throughout.

As for `CSC[C@H](N)Cc1sc2c(NCc3ccco3)cnnc2c1C` [Compound 30, 6-[(2R)-2-amino-3-(methylsulfanyl)propyl]-N-[(furan-2-yl)methyl]-7-methylthieno[3,2-c]pyridazin-4-amine], the IC50 (in test [1]; in the test on total ATXN3 protein) was 0.501 to 5 µM in each case.

Take `CC#Cc1c(C[C@H](C)N)sc2c(NCc3cccs3)cnnc12` [Compound 107, 6-[(2S)-2-aminopropyl]-7-(prop-1-yn-1-yl)-N-[(thiophen-2-yl)methyl]thieno[3,2-c]pyridazin-4-amine]: the IC50 (in test [1]; in the test with total ATXN3 protein) was 0.101 to 0.5 µM in each case.

For the molecule `Cc1c(C(F)(F)[C@H](C)N)sc2c(NCc3cccs3)cnnc12` [Compound 125, 6-[(2S)-2-amino-1,1-difluoropropyl]-7-methyl-N-(thiophen-2-ylmethyl)thieno[3,2-c]pyridazin-4-amine], the IC50 (in test [1]; with total ATXN3 protein) was 0.501 to 5 µM in each case.

For `Cc1c(C[C@@H](N)C[C@@H]2CC2(F)F)sc2c(NCc3cccs3)cnnc12` [Compound 128, 6-[(2S)-2-amino-3-[(1R)-2,2-difluorocyclopropyl]propyl]-7-methyl-N-(thiophen-2-ylmethyl)thieno[3,2-c]pyridazin-4-amine], the IC50 (in test [1]; with total ATXN3 protein) was 10 to 40 µM throughout.

Regarding `Cc1c(CC(N)C2COC2)sc2c(NCc3cccs3)cnnc12` (centres unmarked) [Compound 93, 6-[2-amino-2-(oxetan-3-yl)ethyl]-7-methyl-N-[(thiophen-2-yl)methyl]thieno[3,2-c]pyridazin-4-amine], the IC50 in test [1] fell in the range of 5 to 10 µM; in the test on total ATXN3 protein, 0.501 to 5 µM.

In the case of `N[C@@H](CO)Cc1sc2c(NCc3cccs3)cnnc2c1Cl` [Compound 91, (2R)-2-amino-3-(7-chloro-4-{[(thiophen-2-yl)methyl]amino}thieno[3,2-c]pyridazin-6-yl)propan-1-ol], the IC50 (in test [1]; in the test with total ATXN3 protein) was 0.101 to 0.5 µM throughout.

For `C[C@H](N)Cc1sc2c(NCc3ccco3)cnnc2c1Br` [Compound 100, 6-[(2S)-2-aminopropyl]-7-bromo-N-[(furan-2-y1)methyl]thieno[3,2-c]pyridazin-4-amine], the IC50 (in test [1]; in the test on total ATXN3 protein) was 0.101 to 0.5 µM in each case.

In the case of `Cc1c(C[C@H](C)N)sc2c(NCc3cccs3)c(F)nnc12` [Compound 97, 6-[(2S)-2-aminopropyl]-3-fluoro-7-methyl-N-[(thiophen-2-yl)methyl]thieno[3,2-c]pyridazin-4-amine], the IC50 (in test [1]; in the test on total ATXN3 protein) was 0.101 to 0.5 µM in each case.

As for `C#CC[C@H](N)Cc1sc2c(NCc3cccs3)cnnc2c1C` [Compound 142, 6-[(2S)-2-aminopent-4-yn-1-yl]-7-methyl-N-(thiophen-2-ylmethyl)thieno[3,2-c]pyridazin-4-amine], the IC50 (in test [1]; in the test on total ATXN3 protein) was 0.501 to 5 µM each time.

On to `COC[C@H](N)Cc1sc2c(NCc3cccs3)cnnc2c1Br` [Compound 136, 6-[(2R)-2-amino-3-methoxypropyl]-7-bromo-N-[(thiophen-2-yl)methyl]thieno[3,2-c]pyridazin-4-amine], for which the IC50 (in test [1]; with total ATXN3 protein) was 0.101 to 0.5 µM in each case.

Turning to `Cc1c(C(C)(C)O)sc2c(NCc3cccs3)cnnc12` [Compound 65, 2-{7-methyl-4-[(thiophen-2-ylmethyl)amino]thieno [3,2-c]pyridazin-6-yl}propan-2-ol], the IC50 (in test [1]; with total ATXN3 protein) was 10 to 40 µM throughout.

Consider `C[C@H](N)Cc1sc2c(N[C@@H](C)c3cccs3)cnnc2c1Br` [Compound 112, 6-[(2S)-2-aminopropyl]-7-bromo-N-[(1S)-1-(thiophen-2-yl)ethyl]thieno[3,2-c]pyridazin-4-amine], for which the IC50 (in test [1]; with total ATXN3 protein) was 10 to 40 µM each time.

For the molecule `Cc1c(C[C@@H](N)CCOC(F)F)sc2c(NCc3cccs3)cnnc12` [Compound 139, 6-[(2S)-2-amino-4-(difluoromethoxy)butyl]-7-methyl-N-(thiophen-2-ylmethyl)thieno[3,2-c]pyridazin-4-amine], the IC50 (in test [1]; in the test with total ATXN3 protein) was 0.501 to 5 µM in each case.

On to `Cc1c(C[C@@H](N)CC#N)sc2c(NCc3ccco3)cnnc12` [Compound 38, (3S)-3-amino-4-(4-{[(furan-2-yl)methyl]amino}-7-methylthieno[3,2-c]pyridazin-6-yl)butanenitrile], for which the IC50 (in test [1]; with total ATXN3 protein) was 5 to 10 µM throughout.

Take `COc1ccc(CNc2cnnc3c(C)c(C[C@H](C)N)sc23)s1` [Compound 76, 6-[(2S)-2-aminopropyl]-N-[(5-methoxythiophen-2-yl)methyl]-7-methylthieno[3,2-c]pyridazin-4-amine]: the IC50 (in test [1]; in the test with total ATXN3 protein) was 10 to 40 µM throughout.

For the molecule `Cc1c(C[C@H](C)N)sc2c(NCc3cnco3)cnnc12` [Compound 46, 6-[(2S)-2-aminopropyl]-7-methyl-N-[(1,3-oxazol-5-yl)methyl]thieno[3,2-c]pyridazin-4-amine], the IC50 (in test [1]; in the test with total ATXN3 protein) was 10 to 40 µM in each case.

Take `C[C@H](N)Cc1sc2c(N[C@H](C)c3cccs3)cnnc2c1Br` [Compound 113, 6-[(2S)-2-aminopropyl]-7-bromo-N-[(1R)-1-(thiophen-2-yl)ethyl]thieno[3,2-c]pyridazin-4-amine]: the IC50 (in test [1]; in the test on total ATXN3 protein) was 10 to 40 µM throughout.

`Cc1c(C[C@H](C)N)sc2c(NCc3cccs3)c(Br)nnc12` [Compound 66, 6-[(2S)-2-aminopropyl]-3-bromo-7-methyl-N-[(thiophen-2-yl)methyl]thieno[3,2-c]pyridazin-4-amine]: the IC50 (in test [1]; with total ATXN3 protein) was 10 to 40 µM throughout.

On to `C#Cc1c(C[C@H](C)N)sc2c(NCc3cccs3)cnnc12` [Compound 116, 6-[(2S)-2-aminopropyl]-7-ethynyl-N-[(thiophen-2-yl)methyl]thieno[3,2-c]pyridazin-4-amine], for which the IC50 fell in the range of 1e-05 to 0.1 µM in test [1] and 0.101 to 0.5 µM with total ATXN3 protein.

Turning to `Cc1c(C[C@@H](N)CO)sc2c(NCc3cccs3)cnnc12` [Compound 3, (2R)-2-amino-3-{7-methyl-4-[(thiophen-2-ylmethyl)amino]thieno[3,2-c]pyridazin-6-yl}propan-1-ol], the 50% inhibitory concentration (IC50) (in test [1]; in the test with total ATXN3 protein) was 0.501 to 5 µM in each case.
